Measured values published in PMC11250742, “Preclinical evaluation of CXCR4 peptides for targeted radionuclide therapy in glioblastoma” (EJNMMI Radiopharmacy and Chemistry, 2024).
Where a SMILES comes first, the peptide text is derived from it. Bridges are numbered along the chain shown (N, C = ends). Roman numbers before positions name the chains, in order. [ ]: non-standard residue; d: D form. The star is where a group is joined. DOTA = O=C(O)CN1CCN(CC(=O)O)CCN(CC(=O)*)CCN(CC(=O)O)CC1

Assays:
Assay type in all cases: cell-based
U87-CXCR4 + cells [1] = test: Cell membrane binding and internalisation assay
Experimental: In the saturation binding assays, U87-CXCR4 + cells were seeded in 24-well plates and allowed to adhere. The night before the experiment, complete media was replaced with media containing 2% FBS. To determine the total binding, cells were treated with a mixture of each radiolabelled peptide (at final concentrations ranging from 0.1 to 1000 nM, corresponding to activity concentrations ranging from 0.005 to 50 MBq/mL) with 0.2% dimethyl sulfoxide (DMSO, vehicle). Non-specific binding (NSB) was verified by treating cells with a mixture of each radiolabelled peptide with 100 µM of AMD11070, a potent CXCR4 antagonist.
After 4 h of incubation at 37 °C and 5% CO2, the unbound fraction was collected in gamma counter tubes, and the cells were washed twice with PBS. The wash fractions were added to the same gamma counter tubes. Next, cells were lysed by incubation with 1 M NaOH for 30 min at room temperature (RT). After collecting the lysed cell fractions, two washes with 1 M NaOH were performed, and added to the same fractions, corresponding to the total bound fractions.
For the internalisation assay, 1 and 100 nM of the radiolabelled peptides were used. The membrane-bound fraction was separated from the internalised fraction by a 10 min incubation at RT with a stripping buffer of 50 mM glycine and 100 mM NaCl, pH 2.8. This was followed by lysis with 1 M NaOH as described above.
The activities of all collected fractions were measured in an automated gamma counter. Activity measurements were converted to % added activity (%AA) and normalised for cell counts. A standard curve, obtained by measuring the treatment solutions, was used to convert the activity concentration to moles.

U87-CXCR4 + cells [2] = test: DNA damage immunofluorescence (yH2AX / 53BP1)
Experimental: DNA damage in U87-CXCR4 + cells was detected by immunofluorescent staining of the DNA damage and repair proteins, phospho-H2A histone family member X (yH2Ax) and p53-binding protein 1 (53BP1). Briefly, cells were seeded in 96-well plates and left overnight to adhere at 37 °C, 5% CO2. Next, cells were treated with different activity concentrations of [^177Lu]Lu-DOTA-POL3026 or [^177Lu]Lu-DTPA, ranging from 1 to 20 MBq/mL. After four hours of incubation, cells were washed twice with PBS, replenished with fresh media, and left at 37 °C, 5% CO2 until the fixation time point. For fixation, cells were washed with PBS, and fixed by incubating them with 4% paraformaldehyde (PFA) for 15 min at RT. This was done 0, 24 and 120 h after treatment. Cells were washed twice with PBS and stored in PBS at 4 °C until the residual radioactivity in the plate decayed. The vehicle includes the NaOAc radiolabeling buffer at the concentration used for the 20 MBq/mL peptide solutions.
After decay storage, yH2Ax/53BP1 double staining was performed using the following protocol. First, cells were washed once with PBS-glycine and then permeabilised by washing them for 10 min with PBS-Triton X-100. […]
Cells were imaged at 40x magnification using a BioTek Cytation 5 (Agilent Technologies, Mechelen, Belgium), where 4 fields were imaged per well, ensuring that at least a hundred cells were counted per condition. […]

U87-CXCR4 + cells [3] = test: Apoptosis live cell imaging (Annexin V, Caspase 3/7; IncuCyte); settings: day 5, 4 h, normalised to confluence and vehicle, N = 2
Experimental: Apoptosis was measured using the IncuCyte® Zoom system (Essen Bioscience, Hertfordshire, UK).
Briefly, cells were seeded in 96-well plates, and left to attach overnight at 37 °C, 5% CO2. Next, cells were treated with different activity concentrations of [^177Lu]Lu-DOTA-POL3026 or [^177Lu]Lu-DTPA, ranging from 1 to 20 MBq/mL. After four hours of incubation at 37 °C and 5% CO2, cells were washed twice with PBS. The Sartorius™ IncuCyte® dyes Caspase 3/7 green reagent and Annexin V red reagent were added at 1/2000 and 1/200 dilutions, respectively. Images were analysed using the IncuCyte® Zoom software. The average values of Green Calibrated Unit GCU x µm² (for Caspase 3/7) and Red Calibrated Units RCU x µm² (for Annexin V) signal were normalised to cell confluence percentages, five and seven days after treatment. Vehicle includes the NaOAc radiolabeling buffer at the concentration used for the 20 MBq/mL peptide solutions.

U87-CXCR4 + cells [4] = test: MTS cell viability assay; settings: for cell viability: % of vehicle, mean ± SD
Experimental: Cell viability assays were performed using increasing activity concentrations of the radiolabelled peptides (1 to 20 MBq/mL), incubated with U87-CXC4 + cells for four hours at 37 °C, 5% CO2. After the incubation period, cells were washed twice with PBS and replenished with complete media. After five and seven days of treatment, the cell media was removed and MTS (3-(4,5-dimethylthiazol-2-yl)-5-(3-carboxymethoxyphenyl)-2-(4-sulfophenyl)-2 H-tetrazolium) reagent added, prepared according to manufacturer’s instructions (CellTiter 96® AQueous One Solution Cell Proliferation Assay, Promega, Wisconsin, United States). To determine the effect of the radiation originating from unbound radiolabelled peptides, cells were treated with equivalent activity concentrations of [^177Lu]Lu-DTPA. Triton X-100 (0.1%) was used as a positive control. Vehicle includes the NaOAc radiolabeling buffer at the concentration used for the 20 MBq/mL peptide solutions. The cells were incubated for 0.5–1 h with the MTS reagent at 37 °C, 5% CO2. Absorbance was measured at 490 nm using a BioTek Synergy H1 plate reader (Agilent Technologies, Mechelen, Belgium). Cell viability was normalised to the vehicle and calculated as percentage of cell viability.

Compound	added activity bound to the cell membrane (U87-CXCR4 + cells [1]; 1 nM, 4 h, 37 °C, glycine stripping buffer pH 2.8, mean ± SD, N = 2)	added activity internalised (U87-CXCR4 + cells [1]; 1 nM, 4 h, 37 °C, mean ± SD, N = 2)	reduction of binding in presence of 100 µM AMD11070 (specific binding) (U87-CXCR4 + cells [1]; 1 nM, stated after the internalised fractions)	change of uptake (%AA) at 100 nM compared with 1 nM (U87-CXCR4 + cells [1]; incubation concentration 100 nM)	increase of yH2AX (U87-CXCR4 + cells [2]; any of the activity concentrations (1–20 MBq/mL))	increase in 53BP1 (U87-CXCR4 + cells [2]; any timepoint (0 h, 1 day, 5 days) after treatment)	Annexin V signal (U87-CXCR4 + cells [3]; 1 MBq/mL)	Annexin V signal (U87-CXCR4 + cells [3]; 10 MBq/mL)	cell viability (U87-CXCR4 + cells [4]; 1 MBq/mL, day not stated in the sentence (follows the day 7 statement))	cell viability (U87-CXCR4 + cells [4]; day 5, 20 MBq/mL, 4 h incubation, N = 3–4)	effect on cell viability (U87-CXCR4 + cells [4]; day 7, 2 to 20 MBq/mL)
CC(C)C[C@@H](N)C(=O)NCC(=O)N[C@H](C)C(=O)N[C@H](CO)C(=O)N[C@H](Cc1c[nH]c2ccccc12)C(=O)N[C@H](Cc1c[nH]cn1)C(=O)N[C@H](CCCNC(=N)N)C(=O)N1CCC[C@@H]1C(=O)N[C@H](CC(=O)O)C(=O)N[C@H](CCCCNC(=O)CN1CCN(CC(=O)O)CCN(CC(=O)O)CCN(CC(=O)O)CC1)C(=O)NCCCC[C@@H](NC(=O)[C@H]1CCCN1C(=O)[C@@H](CC(C)C)NC(=O)[C@H]1CCCN1C(=O)[C@@H](CCCNC(=N)N)NC(=O)[C@@H](CCCCN)NC(=O)[C@@H](CCC(N)=O)NC(=O)[C@@H](Cc1ccc(O)cc1)NC(=O)CNC(=O)[C@@H](CC(C)C)NC(=O)[C@@H](CS)NC(=O)[C@@H](CS)NC(=O)[C@@H](CCCCN)NC(=O)[C@@H](CC(=O)O)NC(=O)[C@H]1CCCN1C(=O)[C@@H](CCCNC(=N)N)NC(=O)[C@@H](Cc1c[nH]cn1)NC(=O)[C@@H](Cc1c[nH]c2ccccc12)NC(=O)[C@@H](CO)NC(=O)[C@@H](C)NC(=O)CNC(=O)[C@H](N)CC(C)C)C(N)=O [[^177Lu]Lu-DOTA-DV1-K-DV3, metal not drawn] (I: H-[dL]G[dA][dS][dW][dH][dR][dP][dD][dK][dC][dC][dL]G[dY][dQ][dK][dR][dP][dL][dP][dK]-NH2 / II: H-[dL]G[dA][dS][dW][dH][dR][dP][dD][dK](DOTA); amide I:22-II:C; N-terminus and C-terminus assumed)	less than 1 %AA	0.2 ± 0.02 %AA	negligible	did not significantly increase	–	–	–	–	–	–	–
O=C([O-])CN(CCN(CC(=O)[O-])CC(=O)[O-])CCN(CC(=O)[O-])CC(=O)[O-].[177Lu+3] [[^177Lu]Lu-DTPA]	–	–	–	–	did not result in an increase	No statistically-significant increase	1.4 ± 0.8 times the vehicle	3.3 ± 3.3 times the vehicle	90.9 ± 7.8%	50.2 ± 10.4%	statistically-significant reduction
